Results from patent US20100221821A1, “METHODS AND COMPOSITIONS RELATED TO RIBOSWITCHES THAT CONTROL ALTERNATIVE SPLICING AND RNA PROCESSING” (YALE UNIVERSITY, priority 2007, published 2010).
Where two headings read alike, the source gives them in different places.

Experiments:
[1] = tested on: altered TPP aptamer in THIC-III RNA from A. thaliana; experiment: In-line probing of TPP binding by the spliced (altered) TPP aptamer of THIC type III RNA; parameters: species or system Arabidopsis thaliana
Description: (B) In-line probing analysis of TPP binding by the spliced aptamer depicted in (A). Lanes include RNAs loaded after no reaction (NR), after partial digestion with RNase T1 (T1), or after partial digestion with alkali (^−OH). Sites 1 and 2 were quantified to establish the KD as shown in (C). (C) Plot indicating the normalized fraction of RNA spontaneously cleaved versus the concentration of TPP for sites 1 and 2 in (B).
In-line probing (Soukup and Breaker, 1999) was used to determine whether this altered aptamer retains TPP binding activity.
In-line probing assays were conducted essentially as described previously (Sudarsan et al., 2003; Winkler et al., 2002). […] For in-line probing analysis, the labeled RNA was incubated at room temperature for 40 hours in 50 mM Tris-HCl (pH 8.3 at 23° C.), 20 mM MgCl2, and 100 mM KCl in the absence or presence of varying concentrations of TPP. Cleavage products were resolved by denaturing 10% PAGE, visualized by PhosphorImager (GE Healthcare), and quantitated using ImageQuant software. The apparent KD value, reflecting the concentration of TPP needed to half-maximally modulate RNA structure, was determined by plotting the normalized fraction of RNA cleaved versus the logarithm of TPP concentration.

[2] = tested on: TPP aptamer with 5' splice site region of THIC mRNA from A. thaliana; experiment: In-line probing of TPP aptamer with 5' flank (nts -14-261 relative to 5' splice site); type: binding, Arabidopsis thaliana; settings: 10 μM TPP
Experimental: (A) TPP causes changes in RNA structure near to the 5′ splice site, which is important for the formation of THIC type III RNA. For in-line probing, a 5′ ^32P-labelled RNA starting 14 nts upstream of the 5′ splice site (+1) and expanding to the 3′ end of the TPP aptamer (nucleotides-14-261) from A. thaliana was incubated in the absence (−) or presence (+) of 10 μM TPP and the resulting spontaneous cleavage products were separated by polyacrylamide gel electrophoresis. Markers are RNAs partially digested with RNase T1 (T1) or alkali (^−OH). The graph depicts the relative band intensities in the lanes indicated. (B) Base-pairing potential between the 5′ splice site region and the P4-P5 stems of the TPP aptamer (SEQ ID NOs:34-47; complementary nucleotides are shaded). Stretches of complementary nucleotides are also present in all other plant THIC mRNA sequences available. […]
In-line probing assays were conducted essentially as described previously (Sudarsan et al., 2003; Winkler et al., 2002). […] Cleavage products were resolved by denaturing 10% PAGE, visualized by PhosphorImager (GE Healthcare), and quantitated using ImageQuant software. The apparent KD value, reflecting the concentration of TPP needed to half-maximally modulate RNA structure, was determined by plotting the normalized fraction of RNA cleaved versus the logarithm of TPP concentration.

[3] = biological target: full-length TPP aptamer from A. thaliana; settings: read-out: apparent dissociation constant (KD) of full-length aptamer for TPP; cited from earlier work
THIC transcripts [4] = tested on: THIC transcripts
Experimental: (§1) (A) qRT-PCR analysis was conducted on THIC transcripts from A. thaliana seedlings grown for 14 days on medium supplemented with 0, 0.1, and 1 mM thiamin. Total THIC transcripts and separately types I, II and III RNAs were detected using different primer combinations. cDNAs were generated using a polyT primer or random hexamers for detection of type I RNAs. Expression was normalized for each primer combination to the value measured using medium with no thiamin supplementation (open bars). Values are averages from three independent experiments and error bars represent standard deviation. (B) Northern blot analysis of THIC transcripts from the same samples described in (A). 20 μg total RNA was loaded per lane and analyzed using probes binding to the coding region of THIC, the extended 3′ UTR of types I and III RNAs, or the control transcript EIF4A1. […] (C) qRT-PCR analysis of the time-dependent effects of thiamin treatment on THIC transcripts from A. thaliana. Seedlings were grown for 14 days on thiamin free medium and subsequently sprayed with 50 μM thiamin and 0.25 mg ml^−1 Tween 80. Control seedlings were treated with a solution containing only Tween 80. Samples were collected after 4 h and 26 h and subjected to qRT-PCR analysis. Amounts of THIC transcripts were analyzed from cDNAs generated with polyT primer and normalized to the values of the control samples without application of thiamin (open bars). Values are averages from three independent experiments and error bars represent standard deviation. (D) Relative changes of the levels of THIC transcript types in wild-type (WT) and thiamin pyrophosphokinase double knockout (TPK-KO) A. thaliana plants. Seedlings were grown for 12 days on thiamin free medium and amounts of THIC transcript types were analyzed by qRT-PCR. Data were normalized to the values for the WT samples and reflect averages from three replicates, with error bars representing standard deviation.
(A) qRT-PCR analysis of total THIC transcripts from plants incubated for 48 h under continuous light. Plants were grown for 11 days in light/dark cycles (16/8 h) on medium without thiamin or medium supplemented with 100 μM thiamin. On the morning of the 12th day, plants were transferred to continuous light and samples were taken every 3 hours. Expression was normalized to the value of the sample at time point 0 from plants grown on thiamin free medium. Error bars represent standard deviation of triplicate qRT-PCR analyses. […] (B) qRT-PCR analysis of THIC type III RNAs. Plant material and data normalization are as described for (A).
The amount of THIC transcripts was established by using quantitative RT-PCR (qRT-PCR) to address whether transcript levels respond to increased thiamin concentrations. A. thaliana seedlings were supplemented with various amounts of thiamin and the different THIC transcript types were detected using specific primer combinations. The primer combination amplifying THIC-II also can bind to a subset of THIC-I RNAs that have undergone splicing of the first 3′ UTR intron.
Arabidopsis thaliana ecotype Columbia-0 plants were grown with soil at 23° C. in a growth chamber under 16/8 h (light/dark) photoperiod with 60% humidity unless otherwise stated. For seedling experiments, plants were grown on basal MS medium (Murashige and Skoog, 1962) supplemented with 2% sucrose and varying concentrations of thiamin and under continuous light unless otherwise specified. N. benthamiana plants for leaf infiltration assays were grown on soil for 3 to 5 weeks under continuous light.

THIC transcripts [5] = settings: seedlings on thiamin-supplemented medium
Experimental: as §1

[6] = tested on: THIC TPP riboswitch (3' region of AtTHIC fused to EGFP)
Experimental: (A) Leaves from stably transformed A. thaliana lines expressing a reporter fusion of the complete 3′ region of AtTHIC fused to the 3′ end of EGFP were abscised and incubated with the petioles in water or in water supplemented with 0.02% thiamin. EGFP fluorescence was assessed at 0 h, 48 h, and 72 h after onset of treatment. One representative set of data from three repeats is shown, and the numbers identify different leaves from one transgenic line. (B) Quantitation of EGFP fluorescence of leaves depicted in (A) at three time points. The data represent average fluorescence intensity and standard deviation for each leaf. The plot also depicts average background fluorescence of WT leaves. (C) qRT-PCR analysis of total EGFP and THIC transcripts from leaves incubated for 72 h in water or 0.02% thiamin. Transcript amounts were standardized to an internal reference transcript and normalized to transcript abundance in water treated samples. Values are averages from four independent experiments using different transgenic lines and error bars represent standard deviation. (D,E) RT-PCR analysis of different 3′ UTRs of EGFP and THIC transcript types from A. thaliana reporter transformants grown in the absence of exogenous thiamin. For cDNA generation, a polyT primer, random hexamers or two different gene specific primers (binding either 221 or 882 nts downstream of the end of the aptamer) were used as indicated. The forward primers were specific for the end of the last exon of the coding region of EGFP (left) or THIC (right), whereas the reverse primer was either a polyT primer (D) or homologous to a region 221 nts downstream of the end of the aptamer (E). RT-PCR products were separated and visualized as described in the description of FIG. 2. M designates the marker lanes containing DNAs of 100 base-pair increments. No RT indicates a control reaction using the RNA without reverse transcription as a template source. I-1 and I-2 represent type I RNAs with the upstream intron following the stop codon unspliced or spliced, respectively.
(A) Secondary structure model and sequence of the WT TPP aptamer from A. thaliana genomic sequence and located in the 3′ region of THIC that was fused to EGFP (SEQ ID NOs: 32 and 33). […] (B) Quantitation of EGFP fluorescence in leaves from A. thaliana transformants expressing reporter constructs containing the WT aptamer sequence or mutated versions M2, M3 and M4. Leaves were excised and incubated with their petioles in water or 0.02% thiamin for 72 h before fluorescence analysis. Values are averages from at least three independent experiments using different transgenic lines. Error bars represent standard deviation. (C) qRT-PCR analyses of EGFP and THIC transcript amounts in A. thaliana transformants described in (B). Transcript amounts (standardized using a reference transcript) were normalized to transcript abundance in water treated samples. Values are averages from two to four independent experiments using different transgenic lines. Error bars represent standard deviation. (D,E) RT-PCR analyses of 3′ UTRs of EGFP and THIC transcripts from A. thaliana transformants with mutations M2 or M3. RT-PCR analyses were performed as described in the description of FIGS. 5D and 5E. Forward primers were homologous to the end of the last exon of the coding region of EGFP or THIC, and the reverse primer was a polyT primer (D) or complementary to a region 221 nts downstream of the end of the aptamer (E). Kbp designates kilobase pairs.

[7] = tested on: THIC promoter from A. thaliana; settings: 100 μM thiamin, 9 day old seedlings
Description: A construct consisting of a 1595 by fragment of the THIC promoter from A. thaliana was fused to the reporter gene β-glucuronidase (GUS) and transformed into A. thaliana. […] Data are mean values from three different transgenic lines and from three independent experiments. Error bars represent standard deviation.

[8] = 26 h after spraying with 50 μM thiamin
[9] = four hours after spraying seedlings with 50 μM thiamin

SMILES: Cc1ncc(C[n+]2csc(CCO[P@](=O)(O)OP(=O)(O)O)c2C)c(N)n1 [TPP, thiamine pyrophosphate]
- loss in ligand-binding affinity versus full-length aptamer ([1]; altered aptamer vs full-length aptamer): more than three orders of magnitude
- Kd ([1]; in-line probing, spliced aptamer of THIC-III, read-out: apparent KD of the altered aptamer for TPP): ~60 µM
- TPP binding by mutant M1 of the altered aptamer ([1]; mutation M1 in type III construct): completely abolish TPP binding
- TPP binding by mutant M2 of the altered aptamer ([1]; mutation M2 in type III construct): completely abolish TPP binding
- structural modulation of nucleotides near the 5' splice site [2]: increase in structural flexibility
- Kd [3]: ~0.05 µM

SMILES: Cc1ncc(C[n+]2csc(CCO)c2C)c(N)n1 [thiamin]
- binding to the altered aptamer ([1]; data not shown): does not bind
- THIC-II level (THIC transcripts [4]; [8]): decreased even further
- total THIC RNA level (THIC transcripts [4]; [8]): decreased even further
- increase in THIC-III (THIC transcripts [4]; after spraying with 50 μM thiamin, early phase (4 h)): more pronounced in the early phase
- THIC-II amount relative to absence of added thiamin (THIC transcripts [4]; [9]): 50%
- total THIC RNA amount relative to absence of added thiamin (THIC transcripts [4]; [9]): 50%
- THIC-I transcripts copy number (THIC transcripts [4]; medium containing 1 mM thiamin): little or no change
- THIC-II transcripts (THIC transcripts [4]; medium containing 1 mM thiamin): equivalent reduction
- THIC-III transcripts copy number (THIC transcripts [4]; medium containing 1 mM thiamin): little or no change
- circadian rhythm of THIC expression (THIC transcripts [4]; medium supplemented with 100 μM thiamin, continuous light 48 h): not affected
- total amount of THIC transcripts relative to seedlings grown without thiamin supplementation (THIC transcripts [4]; seedlings grown on medium containing 1 mM thiamin, 14 days): approximately 20%
- THIC-I RNA levels (Northern blot) (THIC transcripts [5]): remain relatively unchanged
- THIC-III RNA levels (Northern blot) (THIC transcripts [5]): remain relatively unchanged
- THIC-II levels (Northern blot) (THIC transcripts [5]; same samples as FIG. 3A): decrease
- amount of endogenous THIC transcripts relative to control levels ([6]; 0.02% thiamin, 72 h, qRT-PCR): approximately 20%
- amount of EGFP transcripts relative to control levels ([6]; WT construct, 0.02% thiamin, 72 h, qRT-PCR): approximately 20%
- EGFP fluorescence in leaves ([6]; WT construct, 0.02% thiamin, rosette stage leaves): decreased
- responsiveness of reporter to thiamin application compared to WT construct ([6]; mutant aptamer M2, 0.02% thiamin 72 h): reduced
- responsiveness of reporter to thiamin application compared to WT construct ([6]; mutant aptamer M3, 0.02% thiamin 72 h): complete loss
- responsiveness of reporter to thiamin application compared to WT construct ([6]; mutant aptamer M4, 0.02% thiamin 72 h): complete loss
- expression of reporter gene (GUS) driven by the THIC promoter [7]: not altered
